Measurements reported in patent publication US10562869B2, “Oxadiazole compounds” (REMYND NV, priority 2014, dated 2020).

These molecules were tested on M17_3TAU(P301L) cells (assay: Retinoic acid-induced cytotoxicity (LDH) in TAU-P301L expressing M17_3TAU(P301L) neuroblastoma cells). Settings: Homo sapiens, Neuroblastoma cell, 168 h; toxicity inhibition (LDH) in M17_3TAU(P301L) cells challenged with retinoic acid, 7 days.
Type: cell-based
Source text: A TAU expression plasmid was constructed by sub-cloning the cDNA encoding for human TAU-P301L protein, wherein proline at position 301 was substituted by a leucine residue, into mammalian expression vector pcDNA3.1 resulting in the plasmid pcDNA3.1-TAUP301L. Plasmid pcDNA3.1-TAU P301L was transfected into human neuroblastoma cells (BE-M17; ATCC No. CRL-2267™) using lipofectamine reagent and subsequently, independent clonal cell lines with the plasmids stably integrated into the genome were selected by antibiotic resistance selection (Geneticin (G418)), resulting in cell line M17_3TAUP301L. Expression of the TAUP301L gene in the M17_3TAUP301L cells was confirmed by Western blot analysis.
M17_3TAU(P301L) cells were treated chronically with retinoic acid (RA) in low serum conditions to induce Alzheimer's disease-like intracellular signaling deregulation leading to increased TAU levels and subsequent cell death. Cytotoxicity of cells was measured by quantification of lactate dehydrogenase (LDH) levels. In dead cells LDH leaked out of the cells into the medium due to a loss of plasma-membrane integrity.
3 days preceding the experiment, a pre-culture of M17_3TAU(P301L) cells was prepared, starting from a stock culture, at a density of 50.000-100.000 cells/cm^2 in culture medium (Optimem Reduced Serum with phenol red (Invitrogen, Cat. 31985-047)) supplemented with 10% fetal calf serum (FCS), 1 mM sodium pyruvate, 1×non-essential amino acids (NEAA), 500 μg/ml G418 and 0.5×(ABAM). At the day of the experiment these precultures were diluted to ˜0.1·10^6 cells/ml in detection medium (Optimem Reduced Serum without phenol red (Gibco, Cat.11058-021) supplemented with 1% fetal calf serum (FCS), 1 mM sodium pyruvate, 1×non-essential amino acids (NEAA), 500 μg/ml G418 and 0.5×ABAM) and 60 μL of this suspension was dispensed per well into a 96-well microtiter plate. After 3 hours of incubation at 37° C./5% CO2 an equal volume of detection medium (without FCS) containing 3.75 μM RA was added and subsequently incubated for 7 days at 37° C./5% CO2. Then LDH activity was determined using the Promega Cytotox 96 Non-Radioactive cytotoxicity assay (Cat. G1780), according to the manufacturer's instructions. Cytotoxicity was defined as the ratio of LDH relative the total LDH in the cells and supernatant.
The assay described above using the M17_3TAU(P301L) cell line allowed to screen compounds for their ability to decrease cytotoxicity in RA-challenged cells. Compounds of the invention were tested for their ability to decrease toxicity at different concentrations, ranging from low non-effective concentrations to high potent concentrations. Afterwards, the dose-dependent inhibition curve was used to calculate their EC50. A compound was considered to be active in this test when it inhibited toxicity by more than 20% relative to untreated M17_3TAU(P301L) cells at a concentration of 10 μM or lower.
With CCC(c1ccccc1)c1noc(N2CCN(CCc3cccc(OC)c3)CC2)n1 (centres unmarked) [Cmpd049, 5-(4-(3-Methoxyphenethyl)piperazin-1-yl)-3-(1-phenylpropyl)-1,2,4-oxadiazole] the EC50 was 10 nM. Fc1ccc(-c2noc(N3CCN(CCc4ccc(Cl)cc4)CC3)n2)cc1F [Cmpd036, 1-[2-(4-Chloro-phenyl)-ethyl]-4-[3-(3,4-difluoro-phenyl)-[1,2,4]oxadiazol-5-yl]-piperazine] showed an EC50 of 22 nM. COc1cccc(CCN2CCN(c3nc(Cc4cccc(Cl)c4)no3)CC2)c1 [Cmpd076, 1-[3-(3-Chloro-benzyl)-[1,2,4]oxadiazol-5-yl]-4-[2-(3-methoxy-phenyl)-ethyl]-piperazine] showed an EC50 of 6 nM. Work on Fc1cccc(-c2noc(N3CCN(CCc4ccc(Cl)cc4)CC3)n2)c1 [Cmpd031, 5-(4-(4-Chlorophenethyl)piperazin-1-yl)-3-(3-fluorophenyl)-1,2,4-oxadiazole] yielded an EC50 of 31 nM. In the case of Clc1ccc(CCN2CCN(c3nc(C4(c5ccccc5)CC4)no3)CC2)cc1 [Cmpd127, 5-(4-(4-Chlorophenethyl)piperazin-1-yl)-3-(1-phenylcyclopropyl)-1,2,4-oxadiazole], the EC50 is reported as 59 nM. COc1cccc(CCN2CCN(c3nc(-c4ccc(C)cc4)no3)CC2)c1 [Cmpd009, 5-(4-(3-Methoxyphenethyl)piperazin-1-yl)-3-(p-tolyl)-1,2,4-oxadiazole] showed an EC50 of 39 nM. In the case of Clc1ccc(CCN2CCN(c3nc(Cc4ccc(Cl)cc4)no3)CC2)cc1 [Cmpd059, 1-[3-(4-Chloro-benzyl)-[1,2,4]oxadiazol-5-yl]-4-[2-(4-chloro-phenyl)-ethyl]-piperazine], the EC50 is reported as 220 nM. In the case of Fc1ccc(C2(c3noc(N4CCN(CCc5ccc(Cl)cc5)CC4)n3)CC2)cc1 [Cmpd111, 5-(4-(4-Chlorophenethyl)piperazin-1-yl)-3-(1-(4-fluorophenyl)cyclopropyl)-1,2,4-oxadiazole], the EC50 is reported as 237 nM. CCOCCN1CCN(c2nc(Cc3ccc(Cl)cc3)no2)CC1 [Cmpd065, 1-[3-(4-Chloro-benzyl)-[1,2,4]oxadiazol-5-yl]-4-(2-ethoxy-ethyl)-piperazine] showed an EC50 of 763 nM. Cc1ccccc1CN1CCN(c2nc(CCC(F)(F)F)no2)CC1 [Cmpd176, 5-(4-(2-Methylbenzyl)piperazin-1-yl)-3-(3,3,3-trifluoropropyl)-1,2,4-oxadiazole] showed an EC50 of 169 nM. CC(C)CCN1CCN(c2nc(C3C[C@@H]4CC[C@H]3C4)no2)CC1 (stereo partly drawn) [Cmpd189, 3-((1S,4R)-bicyclo[2.2.1]heptan-2-yl)-5-(4-isopentylpiperazin-1-yl)-1,2,4-oxadiazole] gave an EC50 of 3 nM. For N#CCCCN1CCN(c2nc(CCC(F)(F)F)no2)CC1 [Cmpd181, 4-(4-(3-(3,3,3-Trifluoropropyl)-1,2,4-oxadiazol-5-yl)piperazin-1-yl)butanenitrile], the EC50 was 584 nM. For Clc1ccc(CCN2CCN(c3nc(C4C[C@@H]5CC[C@H]4C5)no3)CC2)cc1 (stereo partly drawn) [Cmpd186, 3-((1S,4R)-bicyclo[2.2.1]heptan-2-yl)-5-(4-(4-chlorophenethyl)piperazin-1-yl)-1,2,4-oxadiazole], the EC50 was 17 nM. In the case of COc1cccc(CCN2CCN(c3nc(C(F)(F)c4ccc(F)cc4)no3)CC2)c1 [Cmpd150, 3-(Difluoro(4-fluorophenyl)methyl)-5-(4-(3-methoxyphenethyl)piperazin-1-yl)-1,2,4-oxadiazole], the EC50 is reported as 199 nM. With N#CCCCN1CCN(c2nc(Cc3ccc(Cl)cc3)no2)CC1 [Cmpd064, 4-{4-[3-(4-Chloro-benzyl)-[1,2,4]oxadiazol-5-yl]-piperazin-1-yl}-butyronitrile] the EC50 was 54 nM. In the case of Clc1ccccc1CN1CCN(c2nc(C3C[C@@H]4CC[C@H]3C4)no2)CC1 (stereo partly drawn) [Cmpd184, 3-((1S,4R)-bicyclo[2.2.1]heptan-2-yl)-5-(4-(2-chlorobenzyl)piperazin-1-yl)-1,2,4-oxadiazole], the EC50 is reported as 135 nM. FC(F)(F)CCc1noc(N2CCN(CCc3ccc(Cl)cc3)CC2)n1 [Cmpd174, 5-(4-(4-Chlorophenethyl)piperazin-1-yl)-3-(3,3,3-trifluoropropyl)-1,2,4-oxadiazole] gave an EC50 of 24 nM. FC1(F)Oc2ccc(CN3CCN(c4nc(C5(c6ccccc6)CC5)no4)CC3)cc2O1 [Cmpd128, 5-(4-((2,2-Difluorobenzo[d][1,3]dioxol-5-yl)methyl)piperazin-1-yl)-3-(1-phenylcyclopropyl)-1,2,4-oxadiazole] was tested, and the EC50 was 617 nM. Cc1ccc(-c2noc(N3CCN(Cc4ccc(Cl)cc4)CC3)n2)cc1 [Cmpd008, 5-(4-(4-Chlorobenzyl)piperazin-1-yl)-3-(p-tolyl)-1,2,4-oxadiazole] showed an EC50 of 182 nM. Clc1ccc(CCN2CCN(c3nc(-c4ccc(Cl)cc4)no3)CC2)cc1 [Cmpd019, 5-(4-(4-Chlorophenethyl)piperazin-1-yl)-3-(4-chlorophenyl)-1,2,4-oxadiazole] was tested, and the EC50 was 112 nM. Cc1ccccc1CN1CCN(c2nc(-c3ccc(Cl)cc3)no2)CC1 [Cmpd022, 3-(4-Chlorophenyl)-5-(4-(2-methylbenzyl)piperazin-1-yl)-1,2,4-oxadiazole] showed an EC50 of 35 nM. Cc1ccc(CN2CCN(c3nc(-c4ccccc4)no3)CC2)cc1 [Cmpd002, 5-(4-(4-Methylbenzyl)piperazin-1-yl)-3-phenyl-1,2,4-oxadiazole] showed an EC50 of 8 nM. Fc1ccc(Cc2noc(N3CCN(CCc4ccc(Cl)cc4)CC3)n2)cc1F [Cmpd102, 1-[2-(4-Chloro-phenyl)-ethyl]-4-[3-(3,4-difluoro-benzyl)-[1,2,4]oxadiazol-5-yl]-piperazine] gave an EC50 of 17 nM. With Cc1ccccc1CN1CCN(c2nc(Cc3ccccc3)no2)CC1 [Cmpd041, 1-(3-Benzyl-[1,2,4]oxadiazol-5-yl)-4-(2-methylbenzyl)-piperazine] the EC50 was 55 nM. In the case of Cc1ccccc1CN1CCN(c2nc(C3(c4ccccc4)CC3)no2)CC1 [Cmpd123, 5-(4-(2-Methylbenzyl)piperazin-1-yl)-3-(1-phenylcyclopropyl)-1,2,4-oxadiazole], the EC50 is reported as 849 nM. COc1cccc(CCN2CCN(c3nc(Cc4ccccc4)no3)CC2)c1 [Cmpd042, 1-(3-Benzyl-[1,2,4]oxadiazol-5-yl)-4-[2-(3-methoxy-phenyl)-ethyl]-piperazine] gave an EC50 of 3 nM. With N#Cc1ccccc1CN1CCN(c2nc(-c3cccc(Cl)c3)no2)CC1 [Cmpd028, 2-((4-(3-(3-Chlorophenyl)-1,2,4-oxadiazol-5-yl)piperazin-1-yl)methyl)benzonitrile] the EC50 was 48 nM. Cc1cccc(CN2CCN(c3nc(Cc4cccc(F)c4)no3)CC2)c1 [Cmpd089, 1-[3-(3-Fluoro-benzyl)-[1,2,4]oxadiazol-5-yl]-4-(3-methyl-benzyl)-piperazine] was tested, and the EC50 was 485 nM. In the case of COc1cccc(CCN2CCN(c3nc(Cc4ccc(F)c(F)c4)no3)CC2)c1 [Cmpd098, 1-[3-(3,4-Difluoro-benzyl)-[1,2,4]oxadiazol-5-yl]-4-[2-(3-methoxy-phenyl)-ethyl]-piperazine], the EC50 is reported as 3 nM. Molecule Cc1ccc(CN2CCN(c3nc(-c4cccc(F)c4)no3)CC2)cc1 [Cmpd030, 3-(3-Fluorophenyl)-5-(4-(4-methylbenzyl)piperazin-1-yl)-1,2,4-oxadiazole] has an EC50 of 13 nM. Clc1ccc(Cc2noc(N3CCN(CC4CCOCC4)CC3)n2)cc1 [Cmpd069, 3-(4-Chlorobenzyl)-5-(4-((tetrahydro-2H-pyran-4-yl)methyl)piperazin-1-yl)-1,2,4-oxadiazole] gave an EC50 of 161 nM. Molecule c1ccc(Cc2noc(N3CCN(Cc4ccc5c(c4)OCO5)CC3)n2)cc1 [Cmpd040, 1-Benzo[1,3]dioxol-5-ylmethyl-4-(3-benzyl-[1,2,4]oxadiazol-5-yl)-piperazine] has an EC50 of 64 nM. With Cc1ccccc1CN1CCN(c2nc(Cc3ccc(Cl)cc3)no2)CC1 [Cmpd058, 1-[3-(4-Chloro-benzyl)-[1,2,4]oxadiazol-5-yl]-4-(2-methyl-benzyl)-piperazine] the EC50 was 177 nM. COc1cc(CCN2CCN(c3nc(CCC(F)(F)F)no3)CC2)ccn1 [Cmpd175, 5-(4-(2-(2-Methoxypyridin-4-yl)ethyl)piperazin-1-yl)-3-(3,3,3-trifluoropropyl)-1,2,4-oxadiazole] showed an EC50 of 105 nM. Cc1cc(Cc2noc(N3CCN(CCc4ccc(Cl)cc4)CC3)n2)ccn1 [Cmpd170, 5-(4-(4-Chlorophenethyl)piperazin-1-yl)-3-((2-methylpyridin-4-yl)methyl)-1,2,4-oxadiazole] showed an EC50 of 640 nM.
